Legend:
aorta rings = test: Vessel-relaxing action in vitro (aorta rings, phenylephrine contraction); conditions: Oryctolagus cuniculus, concentration required to reduce phenylephrine-induced contraction of rabbit aorta rings by 50%
Protocol: B-1. Vessel-relaxing Action in vitro
Rabbits are stunned with a blow on the back of the neck and exsanguinated. The aorta is removed, freed from adhering tissue, separated into rings with a width of 1.5 mm, and placed individually, with preloading, in 5-ml organ baths with carbogen-gassed Krebs-Henseleit solution at 37° C. with the following composition (mM in each case): sodium chloride: 119; potassium chloride: 4.8; calcium chloride dihydrate: 1; magnesium sulphate heptahydrate: 1.4; potassium dihydrogen phosphate: 1.2; sodium hydrogen carbonate: 25; glucose: 10. The contraction force is recorded with Statham UC2 cells, amplified and digitized via an A/D converter (DAS-1802 HC, Keithley Instruments Munich) and recorded in parallel on a continuous-line recorder. To produce contraction, phenylephrine is added to the bath cumulatively in increasing concentration. After several control cycles, the test substance is added in increasing dosage in each subsequent pass and the level of contraction is compared with the level of contraction reached in the immediately preceding pass. This is used for calculating the concentration that is required to reduce the level of the control value by 50% (IC50 value). The standard application volume is 5 μl, and the proportion of DMSO in the bath solution corresponds to 0.1%.

[1] = target: T1, recombinant guanylate cyclase reporter cell line (Rattus norvegicus, UniProt P19686+P20595); test: Action on recombinant guanylate cyclase reporter cell line; type: cell-based
T1 construct: expressed in transfected cells
T1 sequence (P20595 1-619): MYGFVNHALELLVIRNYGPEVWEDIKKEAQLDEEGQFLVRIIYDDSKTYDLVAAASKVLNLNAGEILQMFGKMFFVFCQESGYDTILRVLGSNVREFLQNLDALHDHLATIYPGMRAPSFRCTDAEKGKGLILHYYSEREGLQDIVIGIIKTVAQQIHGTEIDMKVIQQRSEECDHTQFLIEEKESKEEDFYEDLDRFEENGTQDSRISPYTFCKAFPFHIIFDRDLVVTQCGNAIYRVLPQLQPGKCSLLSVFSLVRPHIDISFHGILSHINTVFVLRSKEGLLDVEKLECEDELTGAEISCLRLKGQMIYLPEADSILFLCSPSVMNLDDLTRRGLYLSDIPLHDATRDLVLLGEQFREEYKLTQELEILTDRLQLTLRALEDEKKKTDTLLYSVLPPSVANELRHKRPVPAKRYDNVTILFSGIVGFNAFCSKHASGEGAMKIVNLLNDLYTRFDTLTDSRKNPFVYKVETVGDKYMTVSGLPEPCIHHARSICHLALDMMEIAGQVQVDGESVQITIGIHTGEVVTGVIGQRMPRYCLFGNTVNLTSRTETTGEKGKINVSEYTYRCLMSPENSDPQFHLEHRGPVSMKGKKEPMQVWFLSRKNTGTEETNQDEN
T1 sequence (P19686 1-690): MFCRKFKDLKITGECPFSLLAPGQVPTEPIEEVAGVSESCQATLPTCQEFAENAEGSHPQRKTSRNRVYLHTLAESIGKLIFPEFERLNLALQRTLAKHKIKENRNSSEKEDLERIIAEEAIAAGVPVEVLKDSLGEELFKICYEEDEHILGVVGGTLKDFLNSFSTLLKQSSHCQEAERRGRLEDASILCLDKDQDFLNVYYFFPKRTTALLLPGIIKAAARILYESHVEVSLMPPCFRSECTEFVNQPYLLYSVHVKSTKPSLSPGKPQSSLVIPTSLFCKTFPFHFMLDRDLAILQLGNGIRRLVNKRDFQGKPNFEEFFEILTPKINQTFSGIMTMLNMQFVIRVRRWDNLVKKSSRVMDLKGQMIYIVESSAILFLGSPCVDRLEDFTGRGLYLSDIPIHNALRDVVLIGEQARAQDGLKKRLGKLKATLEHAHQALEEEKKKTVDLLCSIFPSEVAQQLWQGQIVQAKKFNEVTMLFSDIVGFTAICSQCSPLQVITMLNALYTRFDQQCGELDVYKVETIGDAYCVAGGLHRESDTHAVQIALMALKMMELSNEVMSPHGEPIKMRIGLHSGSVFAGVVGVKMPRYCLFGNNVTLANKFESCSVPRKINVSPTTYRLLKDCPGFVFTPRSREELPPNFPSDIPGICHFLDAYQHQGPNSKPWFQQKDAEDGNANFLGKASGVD
Protocol: B-2. Action on Recombinant Guanylate Cyclase Reporter Cell Line
The cellular action of the compounds according to the invention is determined on a recombinant guanylate cyclase reporter cell line, as described in F. Wunder et al., Anal. Biochem. 339, 104-112 (2005).

[2] = target: T2, human phosphodiesterase 5 (PDE-5) (Homo sapiens, UniProt O76074); test: Inhibition of human phosphodiesterase 5 (PDE-5), SPA assay; type: biochemical; conditions: PDE-5 preparation from human platelets, [8-3H]cGMP substrate
T2 construct: PDE-5 preparations are obtained from human platelets by lysis; from tissue; host or cells: human platelets
Summary of the method: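 Scintillation proximity read-out with yttrium beads after 60 min room-temperature hydrolysis of 0.025 μCi [8-3H]cGMP, pH 7.5 Tris/MgCl2/EDTA buffer. Enzyme is a human platelet PDE-5 fraction, diluted to keep substrate turnover below 70%. Test concentrations 4 μM–0.0018 μM final; IC50 from inhibition curves.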

| Structure (SMILES) | IC50 (aorta rings) | MEC (minimal effective concentration) [1] | IC50 [2] |
| --- | --- | --- | --- |
| CC1(C)C(=O)Nc2nc(-c3nn(Cc4ccccc4F)c4ncccc34)nc(-n3cc(O)cn3)c21 [Example 26, 2-[1-(2-Fluorobenzyl)-1H-pyrazolo[3,4-b]pyridin-3-yl]-4-(4-hydroxy-1H-pyrazol-1-yl)-5,5-dimethyl-5,7-dihydro-6H-pyrrolo[2,3-d]pyrimidin-6-one] | 0.674 µM | 0.03 μm | 0.012 µM |
| CC1(C)C(=O)Nc2nc(-c3nn(Cc4ccccc4F)c4ncccc34)nc(Oc3cn[nH]c3)c21 [Example 27, 2-[1-(2-Fluorobenzyl)-1H-pyrazolo[3,4-b]pyridin-3-yl]-5,5-dimethyl-4-(1H-pyrazol-4-yloxy)-5,7-dihydro-6H-pyrrolo[2,3-d]pyrimidin-6-one] | 1.47 µM | 0.1 μm | 0.004 µM |
| CC(O)c1ccn(-c2nc(-c3nn(Cc4ccccc4F)c4ncccc34)nc3c2C(C)(C)C(=O)N3)n1 (stereo not drawn) [Example 28, 2-[1-(2-Fluorobenzyl)-1H-pyrazolo[3,4-b]pyridin-3-yl]-4-[3-(1-hydroxyethyl)-1H-pyrazol-1-yl]-5,5-dimethyl-5,7-dihydro-6H-pyrrolo[2,3-d]pyrimidin-6-one] | 0.098 µM | 0.3 μm | 0.11 µM |
| CC1(C)C(=O)Nc2nc(-c3nn(Cc4ccccc4F)c4ncccc34)nc(-n3cc(C(F)(F)F)cn3)c21 [Example 29, 2-[1-(2-Fluorobenzyl)-1H-pyrazolo[3,4-b]pyridin-3-yl]-5,5-dimethyl-4-[4-(trifluoromethyl)-1H-pyrazol-1-yl]-5,7-dihydro-6H-pyrrolo[2,3-d]pyrimidin-6-one] | 11.4 µM | 1.0 μm | > 4 µM |
| CC1(C)C(=O)Nc2nc(-c3nn(Cc4ccccc4F)c4ncccc34)nc(-n3ccc(C(F)(F)F)n3)c21 [Example 30, 2-[1-(2-Fluorobenzyl)-1H-pyrazolo[3,4-b]pyridin-3-yl]-5,5-dimethyl-4-[3-(trifluoromethyl)-1H-pyrazol-1-yl]-5,7-dihydro-6H-pyrrolo[2,3-d]pyrimidin-6-one] | > 10 µM | 1.0 μm | > 4 µM |
| CC1(C)C(=O)Nc2nc(-n3nc(Cc4ccccc4F)c4cc(F)ccc43)nc(O)c21 [Example 31, 2-[5-Fluoro-3-(2-fluorobenzyl)-1H-indazol-1-yl]-4-hydroxy-5,5-dimethyl-5,7-dihydro-6H-pyrrolo[2,3-d]pyrimidin-6-one] | 0.142 µM | 0.01 μm | 0.5 µM |
| CC1(C)C(=O)Nc2nc(-c3nn(Cc4ccccc4F)c4ncccc34)nc(N3CCOC(C(F)(F)F)C3)c21 (stereo not drawn) [Example 32, 2-[1-(2-Fluorobenzyl)-1H-pyrazolo[3,4-b]pyridin-3-yl]-5,5-dimethyl-4-[2-(trifluoromethyl)morpholin-4-yl]-5,7-dihydro-6H-pyrrolo[2,3-d]pyrimidin-6-one] | 9.16 µM | 1.0 μm | 0.72 µM |
| CC1(C)C(=O)Nc2nc(-c3nn(Cc4ccccc4F)c4ncccc34)nc(N3CCC(C(F)(F)F)C3)c21 (stereo not drawn) [Example 33, 2-[1-(2-Fluorobenzyl)-1H-pyrazolo[3,4-b]pyridin-3-yl]-5,5-dimethyl-4-[3-(trifluoromethyl)pyrrolidin-1-yl]-5,7-dihydro-6H-pyrrolo[2,3-d]pyrimidin-6-one] | 0.696 µM | 0.3 μm | 0.57 µM |
| CC1(C)C(=O)Nc2nc(-n3nc(Cc4ccccc4F)c4cc(F)ccc43)nc(OCCC(F)(F)F)c21 [Example 34, 2-[5-Fluoro-3-(2-fluorobenzyl)-1H-indazol-1-yl]-5,5-dimethyl-4-(3,3,3-trifluoropropoxy)-5,7-dihydro-6H-pyrrolo[2,3-d]pyrimidin-6-one] | 6.15 µM | 1.0 μm | 0.55 µM |
| CC1(C)C(=O)Nc2nc(-n3nc(Cc4ccccc4F)c4ccccc43)nc(NCCC(F)(F)F)c21 [Example 35, 2-[3-(2-Fluorobenzyl)-1H-indazol-1-yl]-5,5-dimethyl-4-[(3,3,3-trifluoropropyl)amino]-5,7-dihydro-6H-pyrrolo[2,3-d]pyrimidin-6-one] | > 10 µM | 0.3 μm | 0.11 µM |
| CC1(C)C(=O)Nc2nc(-n3nc(Cc4ccccc4F)c4ccccc43)nc(NCC3CC3)c21 [Example 36] | 5.49 µM | 0.3 μm | 0.089 µM |
| CC1(C)C(=O)Nc2nc(-n3nc(Cc4ccccc4F)c4cc(F)ccc43)nc(NCCC(F)(F)F)c21 [Example 37] | 3.87 µM | 0.3 μm | 0.1 µM |
| CC1(C)C(=O)Nc2nc(-n3nc(Cc4ccccc4F)c4cc(F)ccc43)nc(NCC3CC3)c21 [Example 38] | 10 µM | 0.3 μm | 0.041 µM |
| CC1(C)C(=O)Nc2nc(-c3nc(Cc4ccccc4F)c4ncccn34)nc(NCCC(F)(F)F)c21 [Example 39, 2-[8-(2-Fluorobenzyl)imidazo[1,5-a]pyrimidin-6-yl]-5,5-dimethyl-4-[(3,3,3-trifluoropropyl)amino]-5,7-dihydro-6H-pyrrolo[2,3-d]pyrimidin-6-one] | 0.618 µM | 0.1 μm | 0.088 µM |
| C[C@@H](Nc1nc(-c2nn(Cc3ccccc3F)c3ncc(F)cc23)nc2c1C(C)(C)C(=O)N2)C1CC1 [Example 88, 4-{[(1R)-1-Cyclopropylethyl]amino}-2-[5-fluoro-1-(2-fluorobenzyl)-1H-pyrazolo[3,4-b]pyridin-3-yl]-5,5-dimethyl-5,7-dihydro-6H-pyrrolo[2,3-d]pyrimidin-6-one] | 1.67 µM | 0.1 μm | 0.15 µM |
| C[C@H](Nc1nc(-c2nn(Cc3ccccc3F)c3ncc(F)cc23)nc2c1C(C)(C)C(=O)N2)C1CC1 [Example 89, 4-{[(1S)-1-Cyclopropylethyl]amino}-2-[5-fluoro-1-(2-fluorobenzyl)-1H-pyrazolo[3,4-b]pyridin-3-yl]-5,5-dimethyl-5,7-dihydro-6H-pyrrolo[2,3-d]pyrimidin-6-one] | 3.88 µM | 0.03 μm | 0.082 µM |
| Cc1nc2c(cc1F)c(-c1nc(NCCC(F)(F)F)c3c(n1)NC(=O)C3(C)C)nn2Cc1ccccc1F [Example 90, 2-[5-Fluoro-1-(2-fluorobenzyl)-6-methyl-1H-pyrazolo[3,4-b]pyridin-3-yl]-5,5-dimethyl-4-[(3,3,3-trifluoropropyl)amino]-5,7-dihydro-6H-pyrrolo[2,3-d]pyrimidin-6-one] | 3.07 µM | 0.3 μm | 0.23 µM |

— patent US8859569B2, “Substituted annellated pyrimidines and use thereof” (Bayer Pharma Aktiengesellschaft, priority 2011, dated 2014)
